# Measured values reported in patent US8324346B2, “Bioactive keratin peptides” (Keraplast Technologies, Ltd., priority 2002, dated 2012).
# System: Normal human adult dermal fibroblasts
# Assay: Cell Titer96 Cell Proliferation Assay: mitogenic effects of synthesized peptides on human fibroblasts in culture for 5 days
# Format: cell-based
# Details: normalized to baseline controls
# Experimental: Normal human adult dermal fibroblasts were cultured in fibroblast growth medium (Clonetics™/BioWhittaker, San Diego, Calif., USA). Passage 5 cells were seeded into wells of 96 well plates at 5×10^3 cells/well. Test peptide solutions were prepared at approximately 1.5 mg/ml in sterile water. Small volumes of 0.1N NH4OH were added dropwise to peptide the peptide solutions to completely solubilize the peptides as recommended by the manufacturer (New England Peptide, Inc., Fitchburg, Miss., USA). The volume of NH4OH added to the solution was recorded and used to adjust beginning concentration. Solutions were serially diluted in fibroblast culture medium from 100-0.001 μg/ml, then added to the cells and cultured for 5 days. At day 3, test and control media were removed from each well by vacuum and replaced with fresh test or control solutions. Samples were evaluated in 4 replicate wells. Note in each plate, wells were selected at random to be used as baseline controls to account for any variation in cell seeding between plates. After 5 days, cell proliferation was assessed spectrophotometrically using the Cell Titer96® Cell Proliferation Assay (Promega Corp., Madison, Wis., USA). Absorbance values were normalized to baseline controls and expressed as percent increased (positive values) or decreased (negative values) proliferation.
Substance,"percent increased (positive values) or decreased (negative values) proliferation, concentration 0.001 ug/mL [%]","percent increased (positive values) or decreased (negative values) proliferation, concentration 0.01 ug/mL [%]","percent increased (positive values) or decreased (negative values) proliferation, concentration 0.1 ug/mL [%]","percent increased (positive values) or decreased (negative values) proliferation, concentration 1 ug/mL [%]","percent increased (positive values) or decreased (negative values) proliferation, concentration 10 ug/mL [%]","percent increased (positive values) or decreased (negative values) proliferation, concentration 100 ug/mL [%]"
AAPTV (Consensus peptide) [H2N-AAPTV-OH],11.0,−0.2,0.3,2.8,−5.9,−5.9
AAPTVD (Consensus peptide) [H2N-AAPTVD-OH],11.6,7.9,−1.1,1.7,−2.0,1.6
APTVDLN (Consensus peptide) [H2N-APTVDLN-OH],1.2,3.9,2.8,−6.0,8.1,6.7
DAAPTV (Consensus peptide) [H2N-DAAPTV-OH],−3.0,9.5,7.5,3.5,−6.1,−2.7
DLNQ (Consensus peptide) [H2N-DLNQ-OH],15.9,8.9,2.6,−0.8,−0.7,−3.6
DLNRVL (Consensus peptide) [H2N-DLNRVL-OH],14.4,11.5,−0.4,−2.8,−3.5,−1.2
DTAPTV (Consensus peptide) [H2N-DTAPTV-OH],3.2,2.5,6.7,2.9,2.2,7.6
EVDAAPT (Consensus peptide) [H2N-EVDAAPT-OH],6.5,8.9,5.4,7.1,16.5,4.1
LGDRL (Consensus peptide) [H2N-LGDRL-OH],10.3,0.0,0.6,−4.8,−3.1,−3.8
LNVEV (Consensus peptide) [H2N-LNVEV-OH],−1.0,0.9,−10.8,−11.4,15.9,13.9
RLNVEV (Consensus peptide) [H2N-RLNVEV-OH],−2.6,−6.0,−4.3,1.9,6.4,10.6
SPLGD (Consensus peptide) [H2N-SPLGD-OH],11.8,1.7,−4.2,1.5,−1.2,−4.3
TAPTV (Consensus peptide) [H2N-TAPTV-OH],5.2,−1.2,9.4,8.2,−2.7,0.7
TAPTVD (Consensus peptide) [H2N-TAPTVD-OH],0.3,−0.9,−0.5,2.1,4.0,6.9
TLRSP (Consensus peptide) [H2N-TLRSP-OH],4.7,1.9,7.7,6.6,14.7,18.8
VDAAPT (Consensus peptide) [H2N-VDAAPT-OH],1.6,2.9,−3.6,4.5,6.2,13.3
VDTAPT (Consensus peptide) [H2N-VDTAPT-OH],9.0,4.2,6.8,2.5,−0.1,4.4
VDTAPTV (Consensus peptide) [H2N-VDTAPTV-OH],10.4,7.9,1.2,0.7,5.5,−5.5
VEVDAA (Consensus peptide) [H2N-VEVDAA-OH],11.0,2.3,−9.0,−4.7,−1.3,−9.5
